According to patent US20200339691A1, “PROTEINACEOUS MOLECULES AND USES THEREFOR” (priority 2018, published 2020):
Where a SMILES comes first, the peptide text is derived from it. The star is where a group is joined. Myristoyl = CCCCCCCCCCCCCC(=O)*

Columns and labels:
[1] = test system: CD44^hiCD24^lo CSCs in MDA-MB-231 cells; experiment: FACS analysis of CD44^hiCD24^lo cancer stem cells in MDA-MB-231 cells treated with P1 analogues; assay type: cell-based, human; settings: 50 μM peptide, 48 hours; for CD44^hiCD24^lo CSCs (%) / COI, Live Single CD44^hiCD24^lo CSCs (Cell Count): n = 1; for Average Inhibition of CSCs (%) / CD44^hiCD24^lo CSCs (%) Repeat 1 / CD44^hiCD24^lo CSCs (%) Repeat 2 / CD44^hiCD24^lo CSCs (%) Repeat 3: n = 3
Procedure: Analogues of P1 (Table 6) were designed and synthesized in accordance with the procedure of Example 5. The ability of these analogues to inhibit cancer stem cells was determined using FACS analysis on MDA-MB-231 cells, which constitutively contain approximately 90% CD44^hiCD24^lo cancer stem cells, treated with the peptides.
(§1) Non-adherent cells were removed during the washing steps.

MDA-MB-231 cells = assay type: cell-based, human; settings: 50 μM peptide, 48 hours, n = 1
Excerpt: as §1
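For COI, Live Single Cells (Cell Count) in this document: live means Hoechst-negative events among single cells.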

Row | SMILES | Inhibition of CSCs (%) Repeat 1 [1] [%] | Inhibition of CSCs (%) Repeat 2 [1] [%] | Inhibition of CSCs (%) Repeat 3 [1] [%] | CD44^hiCD24^lo CSCs (%) [1] [%] | COI, Live Single CD44^hiCD24^lo CSCs (Cell Count) [1] | Average Inhibition of CSCs (%) [1] [%] | CD44^hiCD24^lo CSCs (%) Repeat 1 [1] [%] | CD44^hiCD24^lo CSCs (%) Repeat 2 [1] [%] | CD44^hiCD24^lo CSCs (%) Repeat 3 [1] [%] | COI (Cell Count) (MDA-MB-231 cells) | COI, Live Single Cells (Cell Count) (MDA-MB-231 cells) | COI, Single (Cell Count) (MDA-MB-231 cells) | Total Cell Count (MDA-MB-231 cells)
1 | CCCCCCCCCCCCCC(=O)N[C@@H](C)C(=O)N[C@H](C(=O)N[C@@H](Cc1ccccc1)C(=O)N[C@H](C(=O)N[C@@H](Cc1ccccc1)C(=O)N[C@@H](CCCNC(=N)N)C(=O)N[C@@H](CC(C)C)C(=O)N[C@@H](CCCNC(=N)N)C(=O)N[C@@H](CCCCN)C(=O)NCC(=O)N[C@@H](CCCNC(=N)N)C(=O)N[C@@H](CCSC)C(=O)N[C@@H](CCSC)C(=O)N[C@@H](CC(=O)O)C(=O)N[C@H](C(=O)N[C@@H](CCCCN)C(=O)N[C@@H](CCCCN)C(N)=O)C(C)C)[C@@H](C)CC)[C@@H](C)O [Peptide 2853801, Myristoyl-ATFIFRLRKGRMMDVKK-NH2] (Myristoyl-ATFIFRLRKGRMMDVKK-NH2) | 93.01 | 94.77 | 94.78 | 5.39 | 102 | 94.19 | 6.27 | 4.69 | 4.68 | 2375 | 1894 | 2024 | 8558
2 | CCCCCCCCCCCCCC(=O)N[C@@H](CC(C)C)C(=O)N[C@H](C(=O)N[C@@H](Cc1ccccc1)C(=O)N[C@H](C(=O)N[C@@H](Cc1ccccc1)C(=O)N[C@@H](CCCNC(=N)N)C(=O)N[C@H](C(=O)N[C@@H](CCCNC(=N)N)C(=O)N[C@@H](CCCCN)C(=O)NCC(=O)N[C@@H](CCCNC(=N)N)C(=O)N[C@@H](CCSC)C(=O)N[C@@H](CCSC)C(=O)N[C@@H](CC(=O)O)C(=O)N[C@H](C(=O)N[C@@H](CCCCN)C(=O)N[C@@H](CCCCN)C(N)=O)C(C)C)C(C)C)[C@@H](C)CC)[C@@H](C)O [Peptide 2853820, Myristoyl-LTFIFRVRKGRMMDVKK-NH2] (Myristoyl-LTFIFRVRKGRMMDVKK-NH2) | 89.75 | 90.39 | 91.76 | 6.64 | 14 | 90.63 | 9.19 | 8.62 | 7.40 | 541 | 211 | 346 | 3098
3 | CCCCCCCCCCCCCC(=O)N[C@@H](CC(C)C)C(=O)N[C@H](C(=O)N[C@@H](Cc1ccccc1)C(=O)N[C@H](C(=O)N[C@@H](CCC(=O)O)C(=O)N[C@@H](CCCNC(=N)N)C(=O)N[C@@H](CC(C)C)C(=O)N[C@@H](CCCNC(=N)N)C(=O)N[C@@H](CCCCN)C(=O)NCC(=O)N[C@@H](CCCNC(=N)N)C(=O)N[C@@H](CCSC)C(=O)N[C@@H](CCSC)C(=O)N[C@@H](CC(=O)O)C(=O)N[C@H](C(=O)N[C@@H](CCCCN)C(=O)N[C@@H](CCCCN)C(N)=O)C(C)C)[C@@H](C)CC)[C@@H](C)O [Peptide 2853813, Myristoyl-LTFIERLRKGRMMDVKK-NH2] (Myristoyl-LTFIERLRKGRMMDVKK-NH2) | 77.05 | 75.44 | 67.63 | 27.78 | 5 | 73.37 | 20.57 | 22.04 | 29.05 | 55 | 18 | 48 | 867
4 | CCCCCCCCCCCCCC(=O)N[C@@H](CC(C)C)C(=O)N[C@H](C(=O)N[C@H](C(=O)N[C@H](C(=O)N[C@@H](Cc1ccccc1)C(=O)N[C@@H](CCCNC(=N)N)C(=O)N[C@@H](CC(C)C)C(=O)N[C@@H](CCCNC(=N)N)C(=O)N[C@@H](CCCCN)C(=O)NCC(=O)N[C@@H](CCCNC(=N)N)C(=O)N[C@@H](CCSC)C(=O)N[C@@H](CCSC)C(=O)N[C@@H](CC(=O)O)C(=O)N[C@H](C(=O)N[C@@H](CCCCN)C(=O)N[C@@H](CCCCN)C(N)=O)C(C)C)[C@@H](C)CC)C(C)C)[C@@H](C)O [Peptide 2853809, Myristoyl-LTVIFRLRKGRMMDVKK-NH2] (Myristoyl-LTVIFRLRKGRMMDVKK-NH2) | 49.62 | 53.48 | 60.55 | 35.61 | 537 | 54.55 | 45.15 | 41.73 | 35.40 | 1736 | 1508 | 1560 | 3548
